Consider one compound from patent publication US8580965B2, “Substituted sulfonamide compounds” (Gruenenthal GmbH, priority 2006, dated 2013).

Where a name gives a salt, the structure may show the parent alone.

Assay [1] concerns the target T1, B1R receptor of the rat (bradykinin 1 receptor) (Rattus norvegicus, UniProt P97583).
T1 construct: host or cells: CHO K1 cells (rB1R cells)
T1 sequence (P97583 1-337): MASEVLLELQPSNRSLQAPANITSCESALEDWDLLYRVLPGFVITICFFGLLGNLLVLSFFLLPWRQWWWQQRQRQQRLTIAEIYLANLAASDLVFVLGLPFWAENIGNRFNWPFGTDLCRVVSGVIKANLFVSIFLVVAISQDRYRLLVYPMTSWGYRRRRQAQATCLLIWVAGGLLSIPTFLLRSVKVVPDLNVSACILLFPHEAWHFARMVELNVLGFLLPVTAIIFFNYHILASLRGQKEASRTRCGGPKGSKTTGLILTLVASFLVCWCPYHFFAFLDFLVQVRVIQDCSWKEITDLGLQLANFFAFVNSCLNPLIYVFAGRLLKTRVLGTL
Nature of the assay: FLIPR Ca2+ assay (Fluo-4) on CHO K1 cells stably transfected with the B1R gene of the rat; % activation and % inhibition at 10 μM. The note with it: test substance 10 μM; CHO K1 rB1R cells; Ca2+ inflow after 100 nM Des-Arg9-bradykinin; hydrochloride. The format is cell-based. Summed up: (§1)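 Fluo-4 Ca2+ flux on FLIPR in stable hB1R or rB1R CHO K1 lines, two additions. Agonism: 10 µM compound versus 0.5 nM Lys-Des-Arg9-BK (human) or 100 nM Des-Arg9-BK (rat); antagonism: same agonists applied 10 min later, suppression expressed against maximum achievable inhibition.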

For assay [2], the target named is T2, human B1R receptor (bradykinin 1 receptor) (Homo sapiens, UniProt P46663).
T2 construct: host or cells: CHO K1 cells (hB1R cells)
T2 sequence (P46663 1-353): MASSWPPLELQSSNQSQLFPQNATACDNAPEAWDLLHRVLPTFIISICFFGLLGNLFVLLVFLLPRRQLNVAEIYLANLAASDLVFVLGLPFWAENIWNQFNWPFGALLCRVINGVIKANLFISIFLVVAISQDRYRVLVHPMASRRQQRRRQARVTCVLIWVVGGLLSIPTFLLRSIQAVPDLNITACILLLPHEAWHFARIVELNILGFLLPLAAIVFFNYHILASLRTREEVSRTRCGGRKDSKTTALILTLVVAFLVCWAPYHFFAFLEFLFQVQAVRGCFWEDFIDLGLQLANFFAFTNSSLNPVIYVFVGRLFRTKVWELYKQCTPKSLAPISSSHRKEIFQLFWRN
The assay can be described thus: FLIPR Ca2+ assay (Fluo-4) on CHO K1 cells stably transfected with the human B1R gene; % activation and % inhibition at 10 μM. The format is cell-based. The note with it: test substance 10 μM; CHO K1 hB1R cells; Ca2+ inflow after 0.5 nM Lys-Des-Arg9-bradykinin; hydrochloride. Summed up: as §1

For assay [3], the system named is formalin-induced nociceptive reaction (phase 2). The assay can be described thus: Formalin test mouse (phase 2, chronic pain component). The format is in vivo. The note with it: phase 2 (21 to 24 min after formalin), i.v., 10 mg/kg, 5 min before formalin, change in percent compared with vehicle control. As for the experimental part: The formalin test (Dubuisson, D. and Dennis, S. G., 1977, Pain, 4, 161-174) represents a model for both acute and chronic pain. By means of a single formalin injection into the dorsal side of a rear paw, a biphasic nociceptive reaction is induced in freely mobile test animals; the reaction is detected by observing three behavior patterns which are clearly distinguishable from one another. The reaction is two-phase: phase 1=immediate reaction (duration up to 10 min., shaking of the paw, licking), phase 2=late reaction (after a rest phase; likewise shaking of the paw, licking; duration up to 60 min.). […] In the studies described here, the chronic pain component (phase 2) has been evaluated.
Formalin in a volume of 20 μl and a concentration of 1% is administered subcutaneously into the dorsal side of the right rear paw of each animal. The specific changes in behavior, such as lifting, shaking or licking of the paw (score 3, Dubuisson & Dennis, 1977), are observed and recorded in the observation period of 21 to 24 min following the formalin injection.
The behavior of the animals after administration of the substance (n=10 per dose of substance) was compared with a control group which received vehicle (n=10). Based on the quantification of the pain behavior, the activity of the test substance in the formalin test was determined as the change, in percent, compared with the control. […]

On to `COc1cc(C)c(S(=O)(=O)N2CCCCC2COCC(=O)N2CCC(O)(c3cccnc3)CC2)c(C)c1` (stereo not drawn) [Example 87, 1-(4′-hydroxy-3′,4′,5′,6′-tetrahydro-2′H-[3,4′]bipyridinyl-1′-yl)-2-[1-(4-methoxy-2,6-dimethyl-phenylsulfonyl)-piperidin-2-ylmethoxy]-ethanone; hydrochloride], for which the “B1R antagonism, rat [10 μM] % inhibition” value in assay [1] was determined as 101.93%. Moreover, the “B1R antagonism, human [10 μM] % inhibition” value in assay [2] came to 101.8%. Besides, the “Substance action: antinociception” value in assay [3] was 23% antinociception.
